Assay results: patent US9833424B2, “Application of fluoxetine to treatment of depigmentation diseases” (SHANDONG RUNZE PHARMACEUTICALS CO., LTD., priority 2011, dated 2017)

Tests used:
C57BL/6 mice [1] = experiment: Western blotting of melanin synthesis proteins in skin hair follicles of C57BL/6 mice; type: in vivo, mouse; conditions: 20 mg/kg gavage, 12th day
B16F10 cells [2] = experiment: Cell migration (wound healing test) and morphology, B16F10 cells; conditions: 48 hours, 0.1-10 μM
A375 cells = experiment: Cell migration (wound healing test) and morphology, A375 cells; conditions: 48 hours, 0.1-10 μM
[3] = system: normal human primary melanocytes; experiment: MTT assay for measuring cell proliferation rate of human primary melanocytes; type: cell-based; conditions: 72 hours
zebrafish embryos = experiment: Melanogenesis in PTU-induced zebrafish depigmentation model; type: in vivo; conditions: even at 1.0 μM, hour 12 to hour 60 after fertilization; especially in skin and eyes
[4] = system: tyrosinase activity of human primary melanocytes; experiment: L-DOPA oxidation assay for tyrosinase activity of human primary melanocytes; type: cell-based
B16F10 cells [5] = experiment: MTT assay for measuring cell proliferation rate of B16F10 cells; type: cell-based, mouse; conditions: 0.1 to 10 μM
C57BL/6 mice [6] = experiment: Immunohistochemistry of melanin synthesis proteins in hair follicle melanocytes of C57BL/6 mice; type: in vivo, mouse; conditions: 20 mg/kg gavage, 12th day, immunohistochemical staining
[7] = system: tyrosinase activity in normal human skin tissue; experiment: Tyrosinase activity of in vitro cultured normal human skin tissue (L-DOPA); type: cell-based; conditions: 1-100 μM, 48 hours
B16F10 cells [8] = experiment: Western blotting of melanin synthesis proteins (MITF, TYR, TRP-1, TRP-2) in B16F10 cells; type: cell-based, mouse; conditions: 72 h, vs blank control
[9] = in vivo; cited from earlier work
[10] = system: normal human melanocytes (NHMCs); experiment: Morphology of normal human melanocytes (NHMCs), phase-contrast microscopy; type: cell-based; conditions: 0.1-10 μM, 5 days, with increases in dosage
[11] = system: in vitro cultured normal human skin tissue; experiment: Melanin content of in vitro cultured normal human skin tissue (NaOH cracking process); type: cell-based; conditions: 1 μM, 48 hours
[12] = system: human primary melanocytes; experiment: NaOH lysis method for measuring melanin content of human primary melanocytes; type: cell-based
C57BL/6 mice [13] = experiment: Skin color on the back of hair-removed synchronized C57BL/6 mice after gavage; type: in vivo, mouse; conditions: 20 mg/kg gavage once a day, 12th day, vs solvent control group
[14] = system: human primary melanocytes; experiment: Western blotting of melanin synthesis proteins (MITF, TYR, TRP-1, TRP-2) in human primary melanocytes; type: cell-based; conditions: 72 h, vs blank control
[15] = system: TYR activity in zebrafish; experiment: TYR activity in PTU(35) group zebrafish; type: in vivo
B16F10 cells [16] = experiment: NaOH lysis method for determination of melanin content of B16F10 cells; type: cell-based, mouse
[17] = system: tyrosinase activity of B16F10 cells; experiment: L-DOPA oxidation assay for measuring tyrosinase activity of B16F10 cells; type: cell-based, mouse

tyrosinase activity of human primary melanocytes ([4]; 72 hours, vs blank control, P<0.01): significantly promoted
activity of tyrosinase in skin tissue [7]: did not exhibit any change
Compound: CNCCC(Oc1ccc(C(F)(F)F)cc1)c1ccccc1 (centres unmarked) [fluoxetine, N-methyl-γ-[4-(trifluoromethyl)phenoxy] phenylpropylamine]
expression of protein MITF in skin hair follicles (C57BL/6 mice [1]): significantly improve
expression of tyrosinase (TYR) in skin hair follicles (C57BL/6 mice [1]): significantly improve
expression of tyrosinase-related protein 1 (TRP-1) in skin hair follicles (C57BL/6 mice [1]): significantly improve
expression of tyrosinase-related protein 2 (TRP-2) in skin hair follicles (C57BL/6 mice [1]): significantly improve
cell mobility (B16F10 cells [2]): may increase the mobility
cell mobility (A375 cells): may increase the mobility
toxicity on human primary melanocytes [3]: relatively low toxicity
effect on the growth of normal human primary melanocytes ([3]; vs blank control, P>0.05): no significant effect
melanogenesis in the PTU model zebrafish (zebrafish embryos): increased melanogenesis
enzyme activity increase rate compared with positive drug psoralen ([4]; human primary melanocytes, fluoxetine at 5 μM and 10 μM): exceeded that of the positive drug psoralen
toxicity and carcinogenesis on B16F10 melanoma cells (B16F10 cells [5]): low toxicity and low carcinogenesis
effect on the growth of B16F10 cells (cell proliferation rate) (B16F10 cells [5]; 72 hours, vs blank control, P>0.05): no significant effect
expression of tyrosinase (TYR) in hair follicle melanocytes (C57BL/6 mice [6]): significantly improve
expression of tyrosinase-related protein 1 (TRP-1) in hair follicle melanocytes (C57BL/6 mice [6]): significantly improve
expression of tyrosinase-related protein 2 (TRP-2) in hair follicle melanocytes (C57BL/6 mice [6]): significantly improve
expression of protein MITF (B16F10 cells [8]): significantly improve
expression of protein tyrosinase (TYR) (B16F10 cells [8]): significantly improve
expression of tyrosinase-related protein 1 (TRP-1) (B16F10 cells [8]): significantly improve
protein level of tyrosinase-related protein 2 (TRP-2) (B16F10 cells [8]): not significantly affected
drug excreted in the stool [9]: 15%
drug excreted in the urine [9]: about 80%
dendritic morphology of NHMCs (number and length of dendrites) [10]: the number as well as the length of the primary dendritic melanocytes increase significantly
melanogenesis (melanin content) in skin tissue [11]: stimulates melanogenesis
melanin content of human primary melanocytes ([12]; 72 hours, vs control group, P<0.01): significantly increased
melanin content increase rate compared with positive drug psoralen ([12]; human primary melanocytes): close to or exceeded that of the positive drug psoralen
skin color in the hair-removed area of the skin (C57BL/6 mice [13]): significantly darkened
expression of protein MITF [14]: significantly improve
expression of protein tyrosinase (TYR) [14]: significantly improve
expression of tyrosinase-related protein 1 (TRP-1) [14]: significantly improve
protein level of tyrosinase-related protein 2 (TRP-2) [14]: not significantly affected
TYR activity, dosage dependence ([15]; PTU(35) group zebrafish, 10.0 μM compared with 1.0 μM): higher TRY activity than Flx(1.0 μM)
TYR activity in the PTU(35) group zebrafish ([15]; exposure for 48 hours (hour 12 to hour 60 after fertilization)): enhanced the TYR activity
melanin content of B16F10 cells (B16F10 cells [16]; 1 to 10 μM, 72 hours, vs blank control, P<0.05 at 1 μM, P<0.01 at 5 μM and 10 μM): significantly increased
melanin content increase rate compared with positive drug psoralen (B16F10 cells [16]; B16F10 cells): exceeded that of the positive drug psoralen
tyrosinase activity of B16F10 cells ([17]; 72 hours, vs blank control, P<0.05 at 1 μM and 5 μM, P<0.01 at 10 μM): significantly promoted
enzyme activity increase rate compared with positive drug psoralen ([17]; B16F10 cells, fluoxetine in the highest concentration): close to that of the positive drug psoralen
